Laboratory results as given in ChEMBL document CHEMBL1201862, “PubChem BioAssay data set” (2004).
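Five compound concentrations were applied to cells in 96-well plates for 48 hours; endpoints were derived by simple linear interpolation of the resulting dose-response curve. GI50 is the concentration that inhibits growth by half.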 The source made the active and inactive calls. Cut-off read from the data, not from the text of the source: active = GI50 up to about 1.1 µM and inactive = higher.

What was measured:
Assay in all cases: growth of human tumour cells (NCI), 48 h
T47D = tested on: T47D
HCT-116 = tested on: HCT-116
ACHN = tested on: ACHN
HOP-92 = tested on: HOP-92
NCI-H522 = tested on: NCI-H522
MDA-MB-231 = tested on: MDA-MB-231
MDA-N = tested on: MDA-N
BT-549 = tested on: BT-549
786-0 = tested on: 786-0
MOLT-4 = tested on: MOLT-4
K562 = tested on: K562
OVCAR-3 = tested on: OVCAR-3
UO-31 = tested on: UO-31
HL-60 = tested on: HL-60
HCC 2998 = tested on: HCC 2998

SMILES	GI50 (T47D)	GI50 (HCT-116)	GI50 (ACHN)	GI50 (HOP-92)	GI50 (NCI-H522)	GI50 (MDA-MB-231)	GI50 (MDA-N)	GI50 (BT-549)	GI50 (786-0)	GI50 (MOLT-4)	GI50 (K562)	GI50 (OVCAR-3)	GI50 (UO-31)	GI50 (HL-60)	GI50 (HCC 2998)
COC(=O)C[C@H](COCc1ccccc1)NC(=O)C[C@H](COCc1ccccc1)NC(=O)C[C@H](COCc1ccccc1)NC(=O)OC(C)(C)C	24.7 µM (inactive)	14.5 µM (inactive)	80.9 µM (inactive)	24.8 µM (inactive)	78 µM (inactive)	81.8 µM (inactive)	> 100 µM (inactive)	> 100 µM (inactive)	18 µM (inactive)	> 100 µM (inactive)	> 100 µM (inactive)	> 100 µM (inactive)	> 100 µM (inactive)	> 100 µM (inactive)	
C[n+]1cn(-c2ccc([N+](=O)[O-])cn2)c2ccccc21	> 100 µM (inactive)	> 100 µM (inactive)	> 100 µM (inactive)	> 100 µM (inactive)		> 100 µM (inactive)		> 100 µM (inactive)	> 100 µM (inactive)	> 100 µM (inactive)	> 100 µM (inactive)	> 100 µM (inactive)	> 100 µM (inactive)	> 100 µM (inactive)	> 100 µM (inactive)
CCCSc1cc(Cl)c(C)cc1S(=O)(=O)n1ccnc1OCCCN(C)C	> 100 µM (inactive)	> 100 µM (inactive)	> 100 µM (inactive)		> 100 µM (inactive)	> 100 µM (inactive)	> 100 µM (inactive)	> 100 µM (inactive)	> 100 µM (inactive)	> 100 µM (inactive)	> 100 µM (inactive)	> 100 µM (inactive)	> 100 µM (inactive)		> 100 µM (inactive)
O=C(NNC(=O)c1ccncc1)c1ccncc1	> 100 µM (inactive)	> 100 µM (inactive)	> 100 µM (inactive)	> 100 µM (inactive)	> 100 µM (inactive)	> 100 µM (inactive)	> 100 µM (inactive)	> 100 µM (inactive)	> 100 µM (inactive)	> 100 µM (inactive)	> 100 µM (inactive)	> 100 µM (inactive)	> 100 µM (inactive)	> 100 µM (inactive)	
C/C(=N\Nc1nc2ccccc2[nH]1)c1ccc2ccccc2n1	0.343 µM (active)	1.95 µM (inactive)	3.15 µM (inactive)		2.33 µM (inactive)	1.87 µM (inactive)	3.97 µM (inactive)	> 100 µM (inactive)	1.9 µM (inactive)	0.755 µM (active)	2.39 µM (inactive)	0.592 µM (active)	1.06 µM (active)	1.8 µM (inactive)	
Nc1nc(Cl)c(N)c(NC23CC4CC(CC(C4)C2)C3)n1	1.34 µM (inactive)	1.58 µM (inactive)	1.78 µM (inactive)	3.89 µM (inactive)	1.92 µM (inactive)	1.79 µM (inactive)	1.58 µM (inactive)	2.25 µM (inactive)	1.67 µM (inactive)	2.39 µM (inactive)	2.08 µM (inactive)	1.64 µM (inactive)	1.69 µM (inactive)		2.25 µM (inactive)
N#C/C(=C/C=C/c1ccco1)C(N)=O	> 10 µM (inactive)		> 10 µM (inactive)		> 10 µM (inactive)	> 10 µM (inactive)	> 10 µM (inactive)		> 10 µM (inactive)			> 10 µM (inactive)	> 10 µM (inactive)		> 10 µM (inactive)
O=C1CCC[C@H]2O[C@@H](COC(=O)c3ccccc3)C[C@H]2O1	> 100 µM (inactive)		> 100 µM (inactive)	> 100 µM (inactive)		> 100 µM (inactive)	> 100 µM (inactive)			> 100 µM (inactive)	> 100 µM (inactive)	> 100 µM (inactive)	> 100 µM (inactive)	> 100 µM (inactive)	
CC(=O)OC[C@@]12Cc3ccc(C)c(O)c3[C@]1(C)[C@@H](OC(C)=O)[C@]1(O)[C@H]([C@@H](OC(=O)c3ccccc3)[C@@H](C)[C@H]1OC(C)=O)[C@H]2OC(C)=O	> 50 µM (inactive)	> 50 µM (inactive)	> 50 µM (inactive)	> 50 µM (inactive)	> 50 µM (inactive)	> 50 µM (inactive)		> 50 µM (inactive)	> 50 µM (inactive)	> 50 µM (inactive)	> 50 µM (inactive)	> 50 µM (inactive)	> 50 µM (inactive)	44.9 µM (inactive)	22 µM (inactive)
NC1=NCC(CN2CCCCC2)O1 (configuration not stated)	> 100 µM (inactive)	> 100 µM (inactive)	> 100 µM (inactive)		> 100 µM (inactive)	> 100 µM (inactive)	> 100 µM (inactive)	> 100 µM (inactive)	> 100 µM (inactive)	> 100 µM (inactive)	> 100 µM (inactive)	> 100 µM (inactive)	> 100 µM (inactive)	> 100 µM (inactive)	
